{"source": "patent US20100227858A1", "about": "“TRISUBSTITUTED PYRIMIDINE DERIVATIVES FOR THE TREATMENT OF PROLIFERATIVE DISEASES” (ASTRAZENECA AB, priority 2007, published 2010)", "key": {"[1]": {"tested_on": "Serine 473 in Akt", "assay": "In vitro phospho-Ser473 Akt assay, Test (c)", "type": "cell-based", "conditions": "Homo sapiens; MDA-MB-468 cells; read-out: IC50 versus Serine 473 in Akt, Test (c)", "method": "(c) In Vitro phospho-Ser473 Akt Assay\nThis assay determines the ability of test compounds to inhibit phosphorylation of Serine 473 in Akt as assessed using Acumen Explorer technology (Acumen Bioscience Limited), a plate reader that can be used to rapidly quantitate features of images generated by laser-scanning.\nA MDA-MB-468 human breast adenocarcinoma cell line (LGC Promochem, Teddington, Middlesex, UK, Catalogue No. HTB-132) was routinely maintained at 37° C. with 5% CO2 up to a confluency of 70-90% in DMEM containing 10% heat-inactivated FCS and 1% L-glutamine.\nFor the assay, the cells were detached from the culture flask using ‘Accutase’ (Innovative Cell Technologies Inc., San Diego, Calif., USA; Catalogue No. AT104) using standard tissue culture methods and resuspended in media to give 1.7×10^5 cells per mL. […]\nAll subsequent aspiration and wash steps were carried out using a Tecan 96 well plate washer (aspiration speed 10 mm/sec). […] An aliquot of PBS (50 μl) was added to each well and the plates were sealed with black plate sealers and the fluorescence signal was detected and analysed.\nFluorescence dose response data obtained with each compound were analysed and the degree of inhibition of Serine 473 in Akt was expressed as an IC50 value."}, "[2]": {"molecular_target": "T1, PI3K", "T1 construct": "full length DNA of each of the p110α, p110β and p110δ Type Ia human PI3K p110 isoforms", "T1 sequence (P42336 whole entry, canonical isoform)": "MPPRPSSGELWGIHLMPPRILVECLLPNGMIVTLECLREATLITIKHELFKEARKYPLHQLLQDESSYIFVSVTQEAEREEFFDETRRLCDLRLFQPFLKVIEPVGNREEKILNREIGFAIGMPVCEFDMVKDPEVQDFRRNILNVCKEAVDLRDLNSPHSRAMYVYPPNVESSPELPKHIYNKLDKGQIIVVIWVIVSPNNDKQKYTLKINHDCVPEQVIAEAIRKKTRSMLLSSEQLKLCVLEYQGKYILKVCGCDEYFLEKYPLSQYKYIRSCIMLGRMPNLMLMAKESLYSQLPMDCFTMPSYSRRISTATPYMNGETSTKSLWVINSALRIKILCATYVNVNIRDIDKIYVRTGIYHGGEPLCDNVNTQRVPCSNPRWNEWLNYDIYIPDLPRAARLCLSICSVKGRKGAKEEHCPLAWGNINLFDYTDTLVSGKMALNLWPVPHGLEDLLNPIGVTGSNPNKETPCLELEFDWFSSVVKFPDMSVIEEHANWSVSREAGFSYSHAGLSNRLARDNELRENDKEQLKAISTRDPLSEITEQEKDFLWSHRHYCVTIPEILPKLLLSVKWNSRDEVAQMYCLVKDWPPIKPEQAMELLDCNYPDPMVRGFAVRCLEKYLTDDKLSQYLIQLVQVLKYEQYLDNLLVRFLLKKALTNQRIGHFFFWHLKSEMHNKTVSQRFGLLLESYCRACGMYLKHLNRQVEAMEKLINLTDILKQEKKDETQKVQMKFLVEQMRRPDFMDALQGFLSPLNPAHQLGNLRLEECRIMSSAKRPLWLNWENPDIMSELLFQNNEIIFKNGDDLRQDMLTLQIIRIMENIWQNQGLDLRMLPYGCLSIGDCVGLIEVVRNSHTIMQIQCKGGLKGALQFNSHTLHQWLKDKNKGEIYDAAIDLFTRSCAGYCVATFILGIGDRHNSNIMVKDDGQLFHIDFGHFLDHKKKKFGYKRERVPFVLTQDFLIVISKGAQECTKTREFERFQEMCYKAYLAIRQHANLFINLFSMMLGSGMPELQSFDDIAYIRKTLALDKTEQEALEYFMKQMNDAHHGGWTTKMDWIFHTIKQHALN", "T1 sequence (P27986 2-724, further chain)": "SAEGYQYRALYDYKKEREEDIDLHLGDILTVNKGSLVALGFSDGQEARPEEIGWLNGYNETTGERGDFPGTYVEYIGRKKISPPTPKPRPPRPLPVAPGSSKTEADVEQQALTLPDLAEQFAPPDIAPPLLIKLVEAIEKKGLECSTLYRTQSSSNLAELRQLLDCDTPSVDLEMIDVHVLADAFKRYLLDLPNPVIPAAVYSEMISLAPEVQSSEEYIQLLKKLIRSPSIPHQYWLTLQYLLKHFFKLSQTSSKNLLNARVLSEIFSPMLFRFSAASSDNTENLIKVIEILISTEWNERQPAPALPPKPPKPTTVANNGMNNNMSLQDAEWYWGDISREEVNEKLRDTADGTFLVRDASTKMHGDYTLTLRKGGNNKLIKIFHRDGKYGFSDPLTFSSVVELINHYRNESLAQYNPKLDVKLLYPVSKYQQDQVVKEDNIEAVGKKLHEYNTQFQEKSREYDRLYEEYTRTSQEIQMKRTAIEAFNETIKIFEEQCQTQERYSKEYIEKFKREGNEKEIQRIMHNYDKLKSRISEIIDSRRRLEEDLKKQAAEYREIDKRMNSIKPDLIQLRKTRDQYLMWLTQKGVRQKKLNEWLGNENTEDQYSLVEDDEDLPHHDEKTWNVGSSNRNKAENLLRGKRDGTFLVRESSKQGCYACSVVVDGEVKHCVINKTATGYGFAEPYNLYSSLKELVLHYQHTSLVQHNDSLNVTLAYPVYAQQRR", "assay": "In vitro PI3K enzyme assay, Test (b)(i) (AlphaScreen)", "type": "biochemical, human", "conditions": "single values measured on two occasions; isoform (p110α or p110γ) not clearly stated; read-out: IC50 versus PI3K, Test (b)(i)", "source_text": "(b)(i) In Vitro PI3K Enzyme Assay"}, "[3]": {"molecular_target": "recombinant mTOR (Homo sapiens, UniProt P42345)", "sequence (P42345 1362-2549)": "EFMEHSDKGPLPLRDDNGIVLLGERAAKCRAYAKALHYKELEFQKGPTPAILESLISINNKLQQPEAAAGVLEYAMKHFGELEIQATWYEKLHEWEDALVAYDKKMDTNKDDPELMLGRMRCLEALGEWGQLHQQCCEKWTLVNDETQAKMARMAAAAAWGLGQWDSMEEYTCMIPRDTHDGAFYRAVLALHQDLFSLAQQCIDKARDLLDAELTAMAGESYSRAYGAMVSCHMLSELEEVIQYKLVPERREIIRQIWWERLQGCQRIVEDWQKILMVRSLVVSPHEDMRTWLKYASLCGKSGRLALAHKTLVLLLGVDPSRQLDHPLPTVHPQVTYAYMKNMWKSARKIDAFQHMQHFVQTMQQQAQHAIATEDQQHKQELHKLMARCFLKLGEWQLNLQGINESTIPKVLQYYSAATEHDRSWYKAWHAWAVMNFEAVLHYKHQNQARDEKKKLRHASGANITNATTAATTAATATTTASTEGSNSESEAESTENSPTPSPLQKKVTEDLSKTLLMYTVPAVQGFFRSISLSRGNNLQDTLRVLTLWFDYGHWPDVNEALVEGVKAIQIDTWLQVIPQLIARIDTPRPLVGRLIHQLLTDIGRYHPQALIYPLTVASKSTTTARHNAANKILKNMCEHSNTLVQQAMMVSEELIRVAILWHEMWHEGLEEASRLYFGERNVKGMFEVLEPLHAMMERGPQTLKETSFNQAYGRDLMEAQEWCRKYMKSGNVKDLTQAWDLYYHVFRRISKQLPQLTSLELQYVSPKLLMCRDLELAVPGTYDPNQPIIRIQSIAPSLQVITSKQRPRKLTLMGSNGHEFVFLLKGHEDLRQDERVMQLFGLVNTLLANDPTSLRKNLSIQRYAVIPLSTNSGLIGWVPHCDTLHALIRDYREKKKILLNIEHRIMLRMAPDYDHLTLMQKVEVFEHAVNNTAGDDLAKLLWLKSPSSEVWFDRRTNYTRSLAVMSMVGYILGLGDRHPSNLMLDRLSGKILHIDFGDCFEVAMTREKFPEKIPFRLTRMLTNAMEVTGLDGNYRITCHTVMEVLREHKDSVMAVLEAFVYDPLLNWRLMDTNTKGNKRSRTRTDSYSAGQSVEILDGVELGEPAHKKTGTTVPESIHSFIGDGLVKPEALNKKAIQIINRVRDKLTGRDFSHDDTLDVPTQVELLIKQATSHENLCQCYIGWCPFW", "assay": "In vitro mTOR kinase assay, Test (a)(i) (AlphaScreen)", "type": "biochemical", "method": "(a)(i) In Vitro mTOR Kinase Assay\nThe HEK293 FLAG-tagged mTOR (1362-2549) stable cell line was routinely maintained at 37° C. with 5% CO2 up to a confluency of 70-90% in Dulbecco's modified Eagle's growth medium (DMEM; Invitrogen Limited, Paisley, UK Catalogue No. 41966-029) containing 10% heat-inactivated foetal calf serum (FCS; Sigma, Poole, Dorset, UK, Catalogue No. F0392), 1% L-glutamine (Gibco, Catalogue No. 25030-024) and 2 mg/ml Geneticin (G418 sulfate; Invitrogen Limited, UK Catalogue No. 10131-027). Following expression in the mammalian HEK293 cell line, expressed protein was purified using the FLAG epitope tag using standard purification techniques.\nA 30 μl mixture of recombinant purified mTOR enzyme, 1 μM biotinylated peptide substrate (Biotin-Ahx-[…]NH2; Bachem UK Ltd), ATP (20 μM) and a buffer solution [comprising Tris-HCl pH7.4 buffer (50 mM), EGTA (0.1 mM), bovine serum albumin (0.5 mg/mL), DTT (1.25 mM) and manganese chloride (10 mM)] was agitated at room temperature for 90 minutes.\nThese assay solutions were incubated for 2 hours at room temperature.\nPhosphorylated biotinylated peptide is formed in situ as a result of mTOR mediated phosphorylation. The phosphorylated biotinylated peptide that is associated with AlphaScreen Streptavidin donor beads forms a complex with the p70 S6 Kinase (T389) 1A5 Monoclonal Antibody that is associated with Alphascreen Protein A acceptor beads. […] Accordingly, the presence of mTOR kinase activity results in an assay signal. In the presence of an mTOR kinase inhibitor, signal strength is reduced."}}, "note": "Where “and” joins values, the source holds several entries; their conditions need not be identical. Equal entries are not always repeated. Where two headings read alike, the source gives them in different places."}
{"smiles": "C[C@H]1COCCN1c1cc(CS(C)(=O)=O)nc(-c2ccc3cc[nH]c3c2)n1", "note": "[Example 35, 6-[4-[(3S)-3-Methylmorpholin-4-yl]-6-(methylsulfonylmethyl)pyrimidin-2-yl]-1H-indole]", "values": [{"measurement": "IC50", "setting": "[1]", "value": 3.36, "unit": "µM"}, {"measurement": "IC50", "setting": "[2]", "value": 37, "unit": "µM"}, {"measurement": "IC50", "setting": "[3]; enzyme assay, values may represent the average of two or more measurements, read-out: Test (a)(i) IC50", "value": 478, "unit": "nM"}, {"measurement": "IC50", "setting": "[3]; single values measured on two occasions, read-out: IC50 versus mTOR kinase, Test (a)(i)", "value": "566 nM and 404 nM"}]}
